For six molecules, % of control, % of inhibition and % of activity results are on record in ChEMBL document CHEMBL5465560, “Selectivity Literature for EUbOPEN Chemogenomic Library” (2024).

Test [1] deals with Wee1-like protein kinase 2 (Homo sapiens) (UniProt P0C1S8). Description: Selectivity interaction (KinomeScan (DiscoverX)) EUB0000655a WEE2. The following applies: at 10 µM.
Test [2] addresses Tyrosine-protein kinase Fes/Fps (Homo sapiens) (UniProt P07332). As to the kind of experiment: Selectivity interaction (ActivX KiNativ screen (ex vivo kinase selectivity in human PBMCs)) EUB0001619a FES. The format is cell-based. The following applies: PBMC, at 1 µM.
Test [3] addresses T1, Serine/threonine-protein kinase D3 (Homo sapiens) (UniProt O94806).
T1 sequence (whole entry): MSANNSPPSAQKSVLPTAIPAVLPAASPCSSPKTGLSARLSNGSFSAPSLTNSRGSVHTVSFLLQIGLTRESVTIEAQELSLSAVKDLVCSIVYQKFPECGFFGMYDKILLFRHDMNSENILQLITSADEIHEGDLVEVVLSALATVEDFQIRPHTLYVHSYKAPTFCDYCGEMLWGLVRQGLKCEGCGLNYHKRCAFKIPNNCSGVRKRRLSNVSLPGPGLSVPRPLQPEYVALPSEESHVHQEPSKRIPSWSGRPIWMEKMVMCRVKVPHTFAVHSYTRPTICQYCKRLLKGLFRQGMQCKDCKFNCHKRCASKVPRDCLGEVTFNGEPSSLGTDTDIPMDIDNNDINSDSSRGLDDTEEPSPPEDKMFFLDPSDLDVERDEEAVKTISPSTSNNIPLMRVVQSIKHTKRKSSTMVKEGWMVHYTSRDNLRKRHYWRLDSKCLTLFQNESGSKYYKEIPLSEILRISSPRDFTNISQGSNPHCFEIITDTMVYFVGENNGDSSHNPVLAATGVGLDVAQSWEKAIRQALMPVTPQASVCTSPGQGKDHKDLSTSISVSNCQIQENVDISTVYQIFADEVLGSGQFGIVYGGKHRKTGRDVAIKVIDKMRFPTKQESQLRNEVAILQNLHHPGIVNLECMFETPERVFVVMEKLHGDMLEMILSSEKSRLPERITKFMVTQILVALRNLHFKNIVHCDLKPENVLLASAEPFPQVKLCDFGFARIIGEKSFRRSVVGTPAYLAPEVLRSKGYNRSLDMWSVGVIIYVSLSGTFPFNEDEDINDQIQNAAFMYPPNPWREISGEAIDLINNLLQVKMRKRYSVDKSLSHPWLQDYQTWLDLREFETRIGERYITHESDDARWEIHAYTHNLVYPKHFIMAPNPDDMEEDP
As to the kind of experiment: Selectivity interaction (KinomeScan (DiscoverX)) EUB0001619a PRKD3. Particulars: at 1 µM.

For test [4], the target named is Serine/threonine-protein kinase SMG1 (Homo sapiens) (UniProt Q96Q15). As to the kind of experiment: Selectivity interaction (ActivX KiNativ screen (ex vivo kinase selectivity in human PBMCs)) EUB0001619a SMG1. Particulars: PBMC, at 1 µM. The format is cell-based.
The target in test [5] is Mitogen-activated protein kinase 9 (Homo sapiens, UniProt P45984). As to the kind of experiment: Selectivity interaction (KinomeScan (DiscoverX)) EUB0001049a MAPK9. The following applies: at 1 µM.
Test [6] has as its target T2, Dual specificity mitogen-activated protein kinase kinase 7 (Homo sapiens) (UniProt O14733).
T2 sequence (whole entry): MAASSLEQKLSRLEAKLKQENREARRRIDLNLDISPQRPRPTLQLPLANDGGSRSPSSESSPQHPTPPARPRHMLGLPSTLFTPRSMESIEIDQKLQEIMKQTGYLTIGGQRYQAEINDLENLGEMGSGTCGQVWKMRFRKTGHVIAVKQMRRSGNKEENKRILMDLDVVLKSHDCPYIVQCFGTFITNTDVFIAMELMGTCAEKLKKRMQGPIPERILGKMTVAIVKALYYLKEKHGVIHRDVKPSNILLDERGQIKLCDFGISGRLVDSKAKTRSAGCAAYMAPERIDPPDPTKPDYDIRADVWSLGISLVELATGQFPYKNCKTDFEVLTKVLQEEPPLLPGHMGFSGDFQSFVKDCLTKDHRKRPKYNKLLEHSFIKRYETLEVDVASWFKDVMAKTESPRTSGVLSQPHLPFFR
Description: Selectivity interaction (ProQinase) EUB0000171b MAP2K7.

Test [7] has as its target Serine/threonine-protein kinase PLK2 (Homo sapiens, UniProt Q9NYY3). As to the kind of experiment: Selectivity interaction (ProQinase) EUB0000171b PLK2.
Test [8] deals with T3, Membrane-associated tyrosine- and threonine-specific cdc2-inhibitory kinase (Homo sapiens) (UniProt Q99640).
T3 sequence (whole entry): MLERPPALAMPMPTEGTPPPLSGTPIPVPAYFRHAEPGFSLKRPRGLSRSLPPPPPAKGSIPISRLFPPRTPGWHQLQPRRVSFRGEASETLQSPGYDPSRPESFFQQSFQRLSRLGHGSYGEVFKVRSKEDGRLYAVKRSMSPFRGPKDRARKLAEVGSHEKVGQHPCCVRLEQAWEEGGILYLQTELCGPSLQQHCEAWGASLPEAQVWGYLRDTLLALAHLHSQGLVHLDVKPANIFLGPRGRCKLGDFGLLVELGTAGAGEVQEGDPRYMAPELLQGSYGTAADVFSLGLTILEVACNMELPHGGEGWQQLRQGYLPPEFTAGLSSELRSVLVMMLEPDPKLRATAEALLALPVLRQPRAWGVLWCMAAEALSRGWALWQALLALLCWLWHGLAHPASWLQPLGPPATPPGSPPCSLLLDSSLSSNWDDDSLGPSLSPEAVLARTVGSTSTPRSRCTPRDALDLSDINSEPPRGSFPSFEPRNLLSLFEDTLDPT
As to the kind of experiment: Selectivity interaction (KinomeScan (DiscoverX)) EUB0000618a PKMYT1. Particulars: at 10 µM.

Test [9] has as its target Histone-lysine N-methyltransferase SETDB1 (Homo sapiens) (UniProt Q15047). Description: Selectivity interaction (Methyltransferase screen (radiometric assays, panel of 8 PRMTs, 21 protein lysine methyltransferases, 3 DNA methyltransferases, and one RNA methyltransferase)) EUB0000272b SETDB1.

Chain of Serine/threonine-protein kinase PLK2 (Q9NYY3 whole entry, looked up): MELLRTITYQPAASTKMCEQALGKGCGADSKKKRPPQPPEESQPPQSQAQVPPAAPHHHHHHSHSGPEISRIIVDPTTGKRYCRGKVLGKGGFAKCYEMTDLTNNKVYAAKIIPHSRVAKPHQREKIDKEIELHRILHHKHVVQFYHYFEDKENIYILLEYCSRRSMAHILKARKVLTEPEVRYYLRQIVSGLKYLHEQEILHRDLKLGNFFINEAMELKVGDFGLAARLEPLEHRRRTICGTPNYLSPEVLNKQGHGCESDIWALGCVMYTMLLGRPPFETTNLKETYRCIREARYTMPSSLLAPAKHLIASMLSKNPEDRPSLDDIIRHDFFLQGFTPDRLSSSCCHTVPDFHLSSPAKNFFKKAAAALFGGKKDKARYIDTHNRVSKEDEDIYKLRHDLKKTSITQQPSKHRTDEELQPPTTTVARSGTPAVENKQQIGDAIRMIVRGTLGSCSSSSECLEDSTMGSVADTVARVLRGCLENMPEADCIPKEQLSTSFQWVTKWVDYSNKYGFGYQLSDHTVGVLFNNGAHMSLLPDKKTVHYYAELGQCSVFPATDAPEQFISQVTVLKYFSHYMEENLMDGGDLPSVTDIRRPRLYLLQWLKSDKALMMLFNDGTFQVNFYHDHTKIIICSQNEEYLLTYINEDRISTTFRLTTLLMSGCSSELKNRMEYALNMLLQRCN
Chain of Wee1-like protein kinase 2 (Homo sapiens) (P0C1S8 whole entry, looked up): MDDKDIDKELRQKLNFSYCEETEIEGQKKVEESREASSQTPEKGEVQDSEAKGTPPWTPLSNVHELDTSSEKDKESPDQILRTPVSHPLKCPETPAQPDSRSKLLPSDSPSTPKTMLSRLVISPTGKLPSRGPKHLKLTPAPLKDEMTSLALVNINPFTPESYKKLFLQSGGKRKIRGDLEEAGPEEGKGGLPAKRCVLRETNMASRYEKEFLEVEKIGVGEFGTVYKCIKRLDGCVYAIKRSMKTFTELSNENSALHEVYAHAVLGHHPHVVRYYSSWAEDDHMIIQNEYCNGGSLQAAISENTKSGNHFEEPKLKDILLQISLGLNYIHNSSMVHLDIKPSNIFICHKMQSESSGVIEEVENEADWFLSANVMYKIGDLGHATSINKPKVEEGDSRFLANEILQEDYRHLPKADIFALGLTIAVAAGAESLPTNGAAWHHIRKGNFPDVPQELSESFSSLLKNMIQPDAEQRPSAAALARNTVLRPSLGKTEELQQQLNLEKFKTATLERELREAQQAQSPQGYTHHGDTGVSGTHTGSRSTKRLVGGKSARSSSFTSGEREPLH
Chain of Serine/threonine-protein kinase SMG1 (Homo sapiens) (Q96Q15 whole entry): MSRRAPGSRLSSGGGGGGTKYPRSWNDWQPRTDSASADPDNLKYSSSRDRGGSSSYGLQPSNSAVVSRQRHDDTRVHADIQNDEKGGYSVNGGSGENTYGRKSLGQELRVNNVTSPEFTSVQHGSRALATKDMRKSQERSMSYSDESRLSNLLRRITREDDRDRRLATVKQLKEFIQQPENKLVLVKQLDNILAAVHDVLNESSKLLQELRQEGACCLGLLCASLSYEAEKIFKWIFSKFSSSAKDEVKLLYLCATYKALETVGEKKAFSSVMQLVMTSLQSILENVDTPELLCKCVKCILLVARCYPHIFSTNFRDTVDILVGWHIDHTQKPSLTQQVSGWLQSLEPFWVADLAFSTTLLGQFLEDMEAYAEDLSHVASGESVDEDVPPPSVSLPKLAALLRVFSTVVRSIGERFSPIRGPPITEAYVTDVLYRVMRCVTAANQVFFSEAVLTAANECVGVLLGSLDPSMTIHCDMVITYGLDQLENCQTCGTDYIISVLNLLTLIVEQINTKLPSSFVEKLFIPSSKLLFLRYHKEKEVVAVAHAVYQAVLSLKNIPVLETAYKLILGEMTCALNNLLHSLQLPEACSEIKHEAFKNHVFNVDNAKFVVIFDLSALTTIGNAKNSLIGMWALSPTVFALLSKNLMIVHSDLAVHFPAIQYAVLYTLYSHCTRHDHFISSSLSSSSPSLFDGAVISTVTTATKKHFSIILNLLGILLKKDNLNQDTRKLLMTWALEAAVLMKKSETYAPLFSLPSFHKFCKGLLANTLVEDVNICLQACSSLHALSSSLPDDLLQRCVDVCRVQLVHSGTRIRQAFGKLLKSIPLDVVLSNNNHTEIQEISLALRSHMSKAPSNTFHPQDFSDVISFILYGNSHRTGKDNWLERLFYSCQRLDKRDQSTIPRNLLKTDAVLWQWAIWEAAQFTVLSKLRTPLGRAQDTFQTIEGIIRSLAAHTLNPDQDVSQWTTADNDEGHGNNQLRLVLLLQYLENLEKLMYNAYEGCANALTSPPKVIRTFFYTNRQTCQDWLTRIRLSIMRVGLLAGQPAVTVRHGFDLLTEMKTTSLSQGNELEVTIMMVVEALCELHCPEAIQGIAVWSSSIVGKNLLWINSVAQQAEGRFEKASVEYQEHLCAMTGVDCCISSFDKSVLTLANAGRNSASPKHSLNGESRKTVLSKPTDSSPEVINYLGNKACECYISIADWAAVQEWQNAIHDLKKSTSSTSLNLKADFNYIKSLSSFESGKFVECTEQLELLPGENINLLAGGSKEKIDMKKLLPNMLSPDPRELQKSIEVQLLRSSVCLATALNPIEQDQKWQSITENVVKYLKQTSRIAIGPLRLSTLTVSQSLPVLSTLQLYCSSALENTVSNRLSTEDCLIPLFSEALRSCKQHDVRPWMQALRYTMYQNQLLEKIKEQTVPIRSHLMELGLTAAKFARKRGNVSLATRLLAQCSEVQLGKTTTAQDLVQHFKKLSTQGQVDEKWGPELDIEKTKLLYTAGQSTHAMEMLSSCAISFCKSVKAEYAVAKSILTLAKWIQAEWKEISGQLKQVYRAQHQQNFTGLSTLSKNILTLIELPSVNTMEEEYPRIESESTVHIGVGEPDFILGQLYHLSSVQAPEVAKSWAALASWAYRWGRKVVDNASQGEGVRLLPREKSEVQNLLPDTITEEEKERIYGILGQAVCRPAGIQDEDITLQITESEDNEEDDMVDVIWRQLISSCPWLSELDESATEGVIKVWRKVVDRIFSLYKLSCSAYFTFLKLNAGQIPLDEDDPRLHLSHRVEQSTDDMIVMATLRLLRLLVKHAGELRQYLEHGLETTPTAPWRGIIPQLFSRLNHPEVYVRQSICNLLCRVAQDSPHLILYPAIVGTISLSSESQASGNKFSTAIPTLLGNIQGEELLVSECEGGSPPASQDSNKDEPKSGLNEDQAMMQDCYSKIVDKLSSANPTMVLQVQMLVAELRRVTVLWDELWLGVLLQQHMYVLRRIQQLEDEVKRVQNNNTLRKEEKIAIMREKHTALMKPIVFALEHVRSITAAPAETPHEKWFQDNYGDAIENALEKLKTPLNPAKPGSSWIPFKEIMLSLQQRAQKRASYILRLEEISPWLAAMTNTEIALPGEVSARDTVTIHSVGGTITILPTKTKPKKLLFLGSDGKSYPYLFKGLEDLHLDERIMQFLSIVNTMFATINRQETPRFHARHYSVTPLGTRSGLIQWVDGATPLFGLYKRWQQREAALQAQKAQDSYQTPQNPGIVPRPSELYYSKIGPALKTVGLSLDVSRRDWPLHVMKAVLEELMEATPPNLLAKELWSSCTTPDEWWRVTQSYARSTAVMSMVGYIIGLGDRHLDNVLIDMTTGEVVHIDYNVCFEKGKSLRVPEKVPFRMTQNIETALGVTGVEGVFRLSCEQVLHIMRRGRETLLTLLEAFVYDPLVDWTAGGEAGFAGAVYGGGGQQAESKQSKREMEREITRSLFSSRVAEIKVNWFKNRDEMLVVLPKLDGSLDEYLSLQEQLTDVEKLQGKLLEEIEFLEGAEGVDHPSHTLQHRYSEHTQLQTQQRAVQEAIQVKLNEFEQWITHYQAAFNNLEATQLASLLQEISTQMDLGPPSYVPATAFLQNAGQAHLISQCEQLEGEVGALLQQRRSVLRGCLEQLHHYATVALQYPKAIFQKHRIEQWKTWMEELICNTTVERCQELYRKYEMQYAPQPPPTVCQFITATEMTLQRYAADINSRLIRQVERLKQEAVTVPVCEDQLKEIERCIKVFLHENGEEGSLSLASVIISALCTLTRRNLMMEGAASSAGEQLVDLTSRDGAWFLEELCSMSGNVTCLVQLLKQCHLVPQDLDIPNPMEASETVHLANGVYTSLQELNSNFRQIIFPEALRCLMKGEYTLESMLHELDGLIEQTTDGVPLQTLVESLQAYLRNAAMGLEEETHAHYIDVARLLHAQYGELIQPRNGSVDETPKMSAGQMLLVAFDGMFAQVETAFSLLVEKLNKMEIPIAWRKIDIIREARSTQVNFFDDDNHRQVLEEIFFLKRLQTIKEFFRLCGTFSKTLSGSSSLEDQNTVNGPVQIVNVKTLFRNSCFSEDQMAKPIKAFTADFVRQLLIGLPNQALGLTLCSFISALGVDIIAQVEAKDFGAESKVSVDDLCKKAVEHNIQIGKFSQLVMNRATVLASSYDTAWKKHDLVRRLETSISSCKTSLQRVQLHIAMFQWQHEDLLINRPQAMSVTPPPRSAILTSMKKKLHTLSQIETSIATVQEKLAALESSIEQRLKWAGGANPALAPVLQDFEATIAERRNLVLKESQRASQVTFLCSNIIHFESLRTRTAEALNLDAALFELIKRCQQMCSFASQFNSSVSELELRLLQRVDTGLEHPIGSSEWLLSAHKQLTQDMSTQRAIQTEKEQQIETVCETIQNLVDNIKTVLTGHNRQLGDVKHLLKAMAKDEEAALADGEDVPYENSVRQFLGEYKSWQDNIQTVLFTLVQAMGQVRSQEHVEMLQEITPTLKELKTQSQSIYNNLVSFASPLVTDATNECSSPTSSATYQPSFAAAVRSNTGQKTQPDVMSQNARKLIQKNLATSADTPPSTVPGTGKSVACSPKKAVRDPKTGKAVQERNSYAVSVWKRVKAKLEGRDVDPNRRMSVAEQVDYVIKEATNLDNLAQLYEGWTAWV

As for `CN(C)CCOc1ccc(-c2nc(-c3ccncc3)c(-c3ccc4c(c3)CC/C4=N\O)[nH]2)cc1`, the % of control in test [1] is 100%.
Turning to `N#Cc1cccc(-c2c[nH]c3ncnc(N4CCOCC4)c23)c1`, the % of inhibition in test [2] is 2%; in test [4] it was 13%. The molecule further gave a % of control in [3] of 64%.
`COc1cc(Nc2nc(C)cc(-c3cnn4nc(OC)ccc34)n2)cc(C(F)(F)F)c1` gave a % of control in test [5] of 82%.
Turning to `C=CC(=O)Nc1cccc(C(=O)Nc2ccc(Nc3cc(-c4[nH]c(SC)nc4C)ccn3)cc2)c1`, the % of control in test [6] (at 1 µM) worked out at 45%; in [6] (at 5 µM), 39%; in test [7] (at 1 µM) it was 86%; in [7] (at 5 µM), 81%.
Take `O[C@H]1CC[C@H](Nc2ncc3nc(Nc4c(F)cc(F)cc4F)n([C@H]4CCOC4)c3n2)CC1`: the % of control in [8] was 92%.
As for `Cc1cc(C)cc([C@H]2c3cc(C)ccc3NC(=O)CN2C(=O)c2ccc(Br)s2)c1`, the % of activity in test [9] (at 1 µM) was determined as 103%; in [9] (at 10 µM), 104%.
